According to patent US9765089B2, “ACC inhibitors and uses thereof” (Gilead Apollo, LLC, priority 2013, dated 2017):

Biological target: ACC2 (Homo sapiens, UniProt O00763)
Experiment: in vitro ACC2 inhibition assay (ADP-Glo)
Format: biochemical
Settings: 5 nM ACC2, 20 μM ATP, 20 μM acetyl-CoA, 60 min room temperature, luminescence
Description: In Vitro Acetyl-CoA Carboxylase (ACC) Inhibition Assay
An exemplary procedure for the in vitro ACC inhibition assay, which can be used to determine the inhibitory action of compounds of the invention toward either ACCT or ACC2, follows. The ADP-Glo™ Kinase Assay kit from Promega is used. The ADP-Glo™ Kinase Assay is a luminescent ADP detection assay to measure enzymatic activity by quantifying the amount of ADP produced during an enzyme reaction. The assay is performed in two steps; first, after the enzyme reaction, an equal volume of ADP-Glo™ Reagent is added to terminate the reaction and deplete the remaining ATP. Second, the Kinase Detection Reagent is added to simultaneously convert ADP to ATP and allow the newly synthesized ATP to be measured using a luciferase/luciferin reaction. Luminescence can be correlated to ADP concentrations by using an ATP-to-ADP conversion curve. The detailed procedure is as follows. 50 μL of the compound being tested (600 uM in DMSO) is added to a 384-well dilution plate. The compound is diluted 1:3 in succession in DMSO for each row for 11 wells. […] is added to 384-well white Optiplate assay plate. 0.5 μL diluted compound solution in each column from step 2 is added to the assay plate, each row containing 2 replicates. For the last 2 rows, add 0.5 μL negative control (DMSO) in one row and 0.5 μL positive control (compound I-97) in the other. The plates are incubated at room temperature for 15 minutes. 5 μL substrate working solution is added to each well to initiate reaction. Final ACC2 reaction concentrations consist of: 5 nM ACC2, 20 μM ATP, 20 μM acetyl-CoA, 12 mM NaHCO3, 0.01% Brij35, 2 mM DTT, 5% DMSO, test compound concentrations: 30 μM, 10 μM, 3.33 μM, 1.11 μM, 0.37 μM, 0.123 μM, 0.0411 μM, 0.0137 μM, 0.00457 μM, 0.00152 μM, and 0.00051 μM. Plates are incubated at room temperature for 60 minutes. 10 μL ADP glo reagent is added. Plates are incubated at room temperature for 40 minutes. 20 μL kinase detection reagent is added. Plates are incubated at room temperature for 40 minutes, then read on a Perkin Elmer EnVision 2104 plate reader for luminescence as Relative Light Units (RLU).
Data for each concentration, as well as the positive and negative controls are averaged, and the standard deviation calculated. Percent inhibition is calculated by the formula: 100×(average negative control−compound)/(average negative control−average positive control). The IC50 for each compound is calculated by fitting the data with a non-linear regression equation: Y=Bottom+(Top-Bottom)/(1+10^((Log IC50−X)*HillSlope)), where X is the log of compound concentration and Y is percent inhibition.
The compound numbers correspond to the compound numbers in Table 1. Compounds having an activity designated as “AAA” provided an IC50≦0.1 μM; compounds having an activity designated as “AA” provided an IC50≦1 μM; compounds having an activity designated as “A” provided an IC50≦5 μM; compounds having an activity designated as “B” provided an IC50 of 5-20 μM; compounds having an activity designated as “C” provided an IC50 of 20-50 μM; and compounds having an activity designated as “D” provided an IC50≧50 μM

ACC2 (Homo sapiens, UniProt O00763), sequence (O00763 whole entry, species assumed): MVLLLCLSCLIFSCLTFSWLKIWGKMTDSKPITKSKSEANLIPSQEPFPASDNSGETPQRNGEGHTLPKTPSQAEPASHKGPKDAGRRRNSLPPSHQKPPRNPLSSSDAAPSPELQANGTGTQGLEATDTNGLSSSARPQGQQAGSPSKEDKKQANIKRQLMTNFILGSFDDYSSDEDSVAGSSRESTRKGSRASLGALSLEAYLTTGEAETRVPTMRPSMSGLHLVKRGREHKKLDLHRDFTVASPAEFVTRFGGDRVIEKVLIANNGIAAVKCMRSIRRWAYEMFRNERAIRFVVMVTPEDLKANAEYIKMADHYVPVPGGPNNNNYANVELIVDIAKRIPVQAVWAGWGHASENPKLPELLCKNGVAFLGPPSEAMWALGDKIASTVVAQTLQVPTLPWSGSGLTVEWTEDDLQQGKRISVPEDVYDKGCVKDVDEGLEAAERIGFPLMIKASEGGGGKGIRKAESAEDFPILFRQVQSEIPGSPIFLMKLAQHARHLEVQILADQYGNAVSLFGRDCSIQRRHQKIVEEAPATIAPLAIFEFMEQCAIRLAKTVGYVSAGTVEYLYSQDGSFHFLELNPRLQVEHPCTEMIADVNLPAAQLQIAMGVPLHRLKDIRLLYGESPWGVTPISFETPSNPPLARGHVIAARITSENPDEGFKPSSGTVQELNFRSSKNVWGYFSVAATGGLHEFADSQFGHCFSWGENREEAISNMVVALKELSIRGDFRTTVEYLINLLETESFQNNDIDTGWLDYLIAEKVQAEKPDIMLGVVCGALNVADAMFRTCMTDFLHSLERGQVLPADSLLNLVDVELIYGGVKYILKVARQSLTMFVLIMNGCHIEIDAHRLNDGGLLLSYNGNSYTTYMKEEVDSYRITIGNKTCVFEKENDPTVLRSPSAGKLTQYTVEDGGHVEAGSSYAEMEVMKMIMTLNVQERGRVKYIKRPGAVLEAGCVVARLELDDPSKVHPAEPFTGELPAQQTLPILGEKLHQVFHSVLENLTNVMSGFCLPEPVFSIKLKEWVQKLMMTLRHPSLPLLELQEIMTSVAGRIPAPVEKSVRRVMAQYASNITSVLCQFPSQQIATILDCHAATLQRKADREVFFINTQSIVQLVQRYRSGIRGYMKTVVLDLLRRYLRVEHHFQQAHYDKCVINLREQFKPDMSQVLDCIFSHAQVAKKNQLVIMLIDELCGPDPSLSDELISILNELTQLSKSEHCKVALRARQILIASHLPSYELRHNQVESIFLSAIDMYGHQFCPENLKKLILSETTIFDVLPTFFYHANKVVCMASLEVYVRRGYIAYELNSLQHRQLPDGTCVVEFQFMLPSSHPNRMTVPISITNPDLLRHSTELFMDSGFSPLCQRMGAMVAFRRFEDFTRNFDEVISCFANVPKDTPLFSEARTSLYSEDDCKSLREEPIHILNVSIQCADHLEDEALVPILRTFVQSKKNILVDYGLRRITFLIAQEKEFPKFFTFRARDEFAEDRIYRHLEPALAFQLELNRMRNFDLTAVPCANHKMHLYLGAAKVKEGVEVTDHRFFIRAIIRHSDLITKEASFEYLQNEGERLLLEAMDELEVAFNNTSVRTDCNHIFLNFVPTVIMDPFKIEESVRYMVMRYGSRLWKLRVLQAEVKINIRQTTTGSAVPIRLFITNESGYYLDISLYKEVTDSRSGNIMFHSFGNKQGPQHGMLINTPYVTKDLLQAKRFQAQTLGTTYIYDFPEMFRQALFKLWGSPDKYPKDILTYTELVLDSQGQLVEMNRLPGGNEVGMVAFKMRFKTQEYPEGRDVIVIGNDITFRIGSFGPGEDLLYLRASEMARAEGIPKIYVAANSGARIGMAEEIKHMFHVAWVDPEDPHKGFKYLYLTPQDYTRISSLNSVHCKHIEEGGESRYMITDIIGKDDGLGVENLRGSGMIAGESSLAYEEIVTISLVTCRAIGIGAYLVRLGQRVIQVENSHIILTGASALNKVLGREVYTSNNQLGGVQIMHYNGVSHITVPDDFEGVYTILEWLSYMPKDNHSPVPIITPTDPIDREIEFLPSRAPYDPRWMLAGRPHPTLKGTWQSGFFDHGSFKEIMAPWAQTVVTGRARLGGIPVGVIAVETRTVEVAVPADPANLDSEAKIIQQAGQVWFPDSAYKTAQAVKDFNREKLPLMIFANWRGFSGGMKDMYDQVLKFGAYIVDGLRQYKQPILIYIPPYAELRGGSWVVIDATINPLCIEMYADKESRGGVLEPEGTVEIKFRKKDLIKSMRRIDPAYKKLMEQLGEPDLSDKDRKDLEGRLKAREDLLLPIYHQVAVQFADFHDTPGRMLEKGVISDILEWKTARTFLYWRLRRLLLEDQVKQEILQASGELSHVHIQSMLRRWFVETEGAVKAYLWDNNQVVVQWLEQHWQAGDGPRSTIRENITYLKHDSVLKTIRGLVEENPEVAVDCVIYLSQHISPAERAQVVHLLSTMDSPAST

Compound | IC50 [µM]
COc1ccccc1[C@H](CN1C(=O)N(C(C)(C)C(=O)O)S(=O)(=O)c2c1sc(-c1ncco1)c2C)OC1CCOCC1 [Compound I-46, (R)-2-(4-(2-(2-methoxyphenyl)-2-((tetrahydro-2H-pyran-4-yl)oxy)ethyl)-7-methyl-6-(oxazol-2-yl)-1,1-dioxido-3-oxo-3,4-dihydro-2H-thieno[2,3-e][1,2,4]thiadiazin-2-yl)-2-methylpropanoic acid] | 5 to 20
COc1ccccc1[C@H](CN1C(=O)N(C(C)(C)C(=O)O)S(=O)(=O)c2c1sc(-c1ncco1)c2C)O[C@H]1CC[C@@H](O)CC1 [Compound I-47, 2-(4-((R)-2-(((1s,4S)-4-hydroxycyclohexyl)oxy)-2-(2-methoxyphenyl)ethyl)-7-methyl-6-(oxazol-2-yl)-1,1-dioxido-3-oxo-3,4-dihydro-2H-thieno[2,3-e][1,2,4]thiadiazin-2-yl)-2-methylpropanoic acid] | 5 to 20
CCOC(=O)c1sc2c(c1C)S(=O)(=O)N(C(C)(C)C(=O)OCc1ccccc1)C(=O)N2C[C@H](OC(C)C)c1cc(F)ccc1OC [Compound I-48, (R)-ethyl 2-(1-(benzyloxy)-2-methyl-1-oxopropan-2-yl)-4-(2-(5-fluoro-2-methoxyphenyl)-2-isopropoxyethyl)-7-methyl-3-oxo-3,4-dihydro-2H-thieno[2,3-e][1,2,4]thiadiazine-6-carboxylate 1,1-dioxide] | 5 to 20
COc1ccccc1CCc1nn(CC(=O)O)c(=O)c2c(C)c(-c3ncco3)sc12 [Compound I-49, 2-(7-(2-methoxyphenethyl)-3-methyl-2-(oxazol-2-yl)-4-oxothieno[2,3-d]pyridazin-5(4H)-yl)acetic acid] | ≥ 50

More lines, now with the values ahead:

IC50 [µM] | Compound
≤ 0.1 | 2-(4-((R)-2-(5-fluoro-2-methoxyphenyl)-2-((tetrahydro-2H-pyran-4-yl)oxy)ethyl)-7-methyl-6-(oxazol-2-yl)-1,1-dioxido-3-oxo-3,4,4a,7a-tetra-hydro-2H-thieno[2,3-e][1,2,4]thiadiazin-2-yl)acetic acid [Compound I-41]
≤ 5 | COc1ccc(F)cc1[C@H](CN1C(=O)N(C(C)(C)C(=O)O)S(=O)(=O)c2c1sc(-c1ncco1)c2C)OC1CCOCC1 [Compound I-42, (R)-2-(4-(2-(5-fluoro-2-methoxyphenyl)-2-((tetrahydro-2H-pyran-4-yl)oxy)ethyl)-7-methyl-6-(oxazol-2-yl)-1,1-dioxido-3-oxo-3,4-dihydro-2H-thieno[2,3-e][1,2,4]thiadiazin-2-yl)-2-methylpropanoic acid]
5 to 20 | COc1ccccc1CCN1c2sc(-c3ncco3)c(C)c2C(=O)N(CC(=O)O)S1(=O)=O [Compound I-43, 2-(1-(2-methoxyphenethyl)-5-methyl-6-(oxazol-2-yl)-2,2-dioxido-4-oxo-1H-thieno[2,3-c][1,2,6]thiadiazin-3(4H)-yl)acetic acid]
5 to 20 | COc1ccccc1CCN1c2sc(-c3ncco3)c(C)c2C(=O)N(CC(N)=O)S1(=O)=O [Compound I-44, 2-(1-(2-methoxyphenethyl)-5-methyl-6-(oxazol-2-yl)-2,2-dioxido-4-oxo-1H-thieno[2,3-c][1,2,6]thiadiazin-3(4H)-yl)acetamide]
5 to 20 | COc1ccc(F)cc1[C@H](CN1C(=O)N(C(C)(C)C(=O)O)S(=O)(=O)c2c1sc(-c1ncco1)c2C)OC(C)C [Compound I-45, (R)-2-(4-(2-(5-fluoro-2-methoxyphenyl)-2-isopropoxyethyl)-7-methyl-6-(oxazol-2-yl)-1,1-dioxido-3-oxo-3,4-dihydro-2H-thieno[2,3-e][1,2,4]thiadiazin-2-yl)-2-methylpropanoic acid]

Test system: ACC1
Experiment: not given
Settings: ACC1 isolated from rat, mouse, monkey and human; cited from earlier work

Compound | IC50 [µM]
O=C(c1c2ccccc2cc2ccccc12)N1CCC(N2CCC[C@@H](C(=O)N3CCOCC3)C2)CC1 [CP-640186] | ~0.06

Test system: ACC2
Experiment: not given
Settings: ACC2 isolated from rat, mouse, monkey and human; cited from earlier work

Compound | IC50 [µM]
O=C(c1c2ccccc2cc2ccccc12)N1CCC(N2CCC[C@@H](C(=O)N3CCOCC3)C2)CC1 [CP-640186] | ~0.06
